This is an account of results in ChEMBL document CHEMBL1155676, “Isolation and biochemical characterization of a new topoisomerase I inhibitor from Ocotea leucoxylon” (J Nat Prod, 2000).

By IC50 is commonly meant the point on the concentration scale where inhibition reaches its midpoint. Low values mean greater potency, high ones weaker potency.

The source made the active and inactive calls. The calls are words filed in the database; no cut-off is given here. Bounds are passed on as bounds.

One assay is filed under the species Bos taurus. The assay is described as follows: Inhibition of calf thymus DNA topoisomerase 1-mediated supercoiled pSP64 plasmid DNA relaxation at 20 uM.
In assay [1] the test system is Saccharomyces cerevisiae. Kind of assay: Growth inhibition of Saccharomyces cerevisiae RJ03 after 48 hrs by XTT assay. Format: functional.
The test system of assay [2] is Saccharomyces cerevisiae. The assay is described as follows: Growth inhibition of Saccharomyces cerevisiae RS322 after 48 hrs by XTT assay. Format: functional.
Assay [3] concerns Saccharomyces cerevisiae. The assay is described as follows: Growth inhibition of Saccharomyces cerevisiae RS321 after 48 hrs by XTT assay. Format: functional.
Another assay has as its system COLO 205. The assay is described as follows: Cytotoxicity against human COLO205 cells upto 30 uM. It is filed as functional, cell-based.
Assay [4] deals with T1, DNA topoisomerase 1 (Homo sapiens) (UniProt P11387).
T1 sequence (whole entry): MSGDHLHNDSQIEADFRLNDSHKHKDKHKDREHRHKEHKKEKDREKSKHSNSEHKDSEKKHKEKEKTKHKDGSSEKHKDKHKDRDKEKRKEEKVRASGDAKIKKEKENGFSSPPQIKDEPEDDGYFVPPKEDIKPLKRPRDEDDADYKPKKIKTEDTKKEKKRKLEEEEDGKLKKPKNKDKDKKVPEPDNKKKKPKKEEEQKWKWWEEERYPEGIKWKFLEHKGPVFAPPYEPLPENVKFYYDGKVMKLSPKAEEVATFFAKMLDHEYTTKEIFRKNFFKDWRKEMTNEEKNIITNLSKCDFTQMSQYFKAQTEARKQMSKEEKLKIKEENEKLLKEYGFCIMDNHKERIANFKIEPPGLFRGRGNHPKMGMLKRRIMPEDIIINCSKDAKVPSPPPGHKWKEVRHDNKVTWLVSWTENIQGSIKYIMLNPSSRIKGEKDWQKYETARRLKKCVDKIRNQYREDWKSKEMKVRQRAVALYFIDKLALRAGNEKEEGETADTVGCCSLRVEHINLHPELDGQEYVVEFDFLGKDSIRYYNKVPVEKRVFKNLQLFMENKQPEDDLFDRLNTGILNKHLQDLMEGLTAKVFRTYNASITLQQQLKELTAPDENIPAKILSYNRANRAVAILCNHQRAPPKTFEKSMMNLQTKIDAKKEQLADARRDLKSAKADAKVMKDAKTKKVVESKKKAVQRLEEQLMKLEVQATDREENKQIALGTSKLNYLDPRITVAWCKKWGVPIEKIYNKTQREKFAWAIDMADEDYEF
Kind of assay: Induction of human recombinant topoisomerase 1-mediated pBR322 plasmid DNA cleavage assessed as increase in nicked form 2 at 100 uM after 60 mins.

In assay [5] the test system is P388. The assay is described as follows: Cytotoxicity against camptothecin-resistant mouse P388 cells by soft-agar colony-formation assay. It is filed as functional, cell-based.
The species named for a further assay is Mus musculus. Kind of assay: Cytotoxicity against mouse lung carcinoma cells upto 30 uM. Format: functional, cell-based.
The test system of another assay is B16-F10. Kind of assay: Cytotoxicity against mouse B16F10 cells upto 30 uM. Format: functional, cell-based.
The target in assay [6] is T1, DNA topoisomerase 1 (Homo sapiens). Kind of assay: Inhibition of human recombinant DNA topoisomerase 1-mediated pBR322 DNA relaxation activity at 20 to 200 uM after 30 mins by gel electrophoresis.
The subject of assay [7] is P388. Kind of assay: Cytotoxicity against mouse P388 cells by soft-agar colony-formation assay. It is filed as functional, cell-based.

For `COc1cc2c[n+](C)c3c4cc5c(cc4ccc3c2cc1OC)OCO5`, the outcome in the assay filed under Bos taurus was Active.

As for `COc1cc2c(cc1OC)-c1c3c(cc4c1[C@H](C2)N(C)CC4)OCO3`, the outcome with Saccharomyces cerevisiae [1], in the assay with Saccharomyces cerevisiae [2] and in the assay with Saccharomyces cerevisiae [3] was inactive.

On to `COc1cc2c(cc1OC)-c1c3c(cc4ccnc(c14)C2=O)OCO3` [DICENTRINONE], for which the Activity result is “Not toxic” in the assay with COLO 205, 29% in assay [4], “Not toxic” in the assay filed under Mus musculus and “Not toxic” in the assay with B16-F10. In addition, the IC12 in the assay on Saccharomyces cerevisiae [1] is more than 2000 µg/mL; with Saccharomyces cerevisiae [2], 49 µg/mL; with Saccharomyces cerevisiae [3] it was more than 2000 µg/mL. The half-inhibitory concentration (IC50) in the assay with P388 [5] and in the assay on P388 [7] was 100 µM each time. For the same compound, the result in [6] was inactive.
